The results in this text go back to patent EP0307172A2, “Improvements in or relating to specific 5-HT3 antagonists” (ELI LILLY AND COMPANY, priority 1987, dated 1989).

Molecules are shown by their SMILES.

This experiment addresses T1, 5-HT₃ receptor (Rattus norvegicus, UniProt P35563).
T1 construct: from tissue
T1 sequence (P35563 24-483): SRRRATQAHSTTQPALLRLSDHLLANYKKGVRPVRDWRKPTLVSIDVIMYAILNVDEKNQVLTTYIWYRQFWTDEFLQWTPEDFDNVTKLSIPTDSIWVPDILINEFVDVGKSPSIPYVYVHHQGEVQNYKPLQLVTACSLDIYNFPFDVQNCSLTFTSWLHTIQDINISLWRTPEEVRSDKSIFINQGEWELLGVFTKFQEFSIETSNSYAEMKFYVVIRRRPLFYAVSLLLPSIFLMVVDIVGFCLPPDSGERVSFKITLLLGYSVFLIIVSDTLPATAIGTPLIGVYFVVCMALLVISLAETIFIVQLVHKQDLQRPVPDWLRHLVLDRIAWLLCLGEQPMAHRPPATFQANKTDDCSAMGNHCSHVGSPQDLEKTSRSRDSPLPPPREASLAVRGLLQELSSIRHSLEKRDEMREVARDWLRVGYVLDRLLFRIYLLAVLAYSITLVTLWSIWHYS
Kind of experiment: Inhibition of serotonin-induced Von Bezold-Jarisch reflex in rats. It is filed as in vivo. To be noted: 15 minutes prior to 5-HT; for inhibition at 0.01 mg/kg / inhibition at 0.003 mg/kg / inhibition at 0.001 mg/kg / inhibition at 0.03 mg/kg: rat, iv, read-out: Percent Inhibition of Reflex in Rats; for inhibition at 0.001 mg/kg: 0.001 mg/kg I.V.; for inhibition at 0.03 mg/kg: 0.03 mg/kg I.V. An excerpt: The compounds of Formula I of this invention are long-acting, orally effective specific 5-HT₃ receptor antagonists, rendering them useful for the treatment of migraine. Because of this mechanism, the compounds of this invention should also be useful for treating emesis, motion sickness, ischemic bowel disease, diabetic gastric paresis, relaxation of the gastro-intestinal tract for instrumentation, other gastro-intestinal pain following surgery, obstetrics or as in abdominal cramps, and for treating CNS disorders such as schizophrenia and anxiety. The ability of these compounds to antagonize the effects of 5-HT was assessed by their inhibition of the Von Bezold-Jarisch reflex induced by 5-HT injected intravenously into the rat (See Paintal, Physiol. Rev., 53, 159 (1973)). When administered by the intravenous route 15 minutes prior to the administration of 5-HT, the compounds of this invention were effective in inhibiting the serotonin-induced Bezold-Jarisch reflex as summarized in Table 1 below: Table 1

Consider `COc1cc2c(c(C(=O)N[C@H]3C[C@H]4CC[C@@H](C3)N4C)c1)OC(C)C2` (mixture of isomers) [Example 27, dl-endo-2,3-dihydro-5-methoxy-2-methyl-N-(8-methyl-8-azabicyclo[3.2.1]oct-3-yl)-7-benzofurancarboxamide (Z)-2-butenedioate], for which the inhibition at 0.01 mg/kg (0.01 mg/kg I.V.) turned out to be 20%.

Turning to `CN1[C@@H]2CC[C@H]1C[C@@H](OC(=O)c1cccc3c1OC(C)(C)C3)C2` [Example 24, Endo-2,3-dihydro-2,2-dimethyl-7-benzofurancarboxylic acid, 8-methyl-8-azabicyclo[3.2.1]oct-3-yl ester (Z)-2-butenedioate], the inhibition at 0.003 mg/kg (0.003 mg/kg I.V.) is 21%. Further, the inhibition at 0.01 mg/kg (0.01 mg/kg I.V.) came out at 38%.

For the compound `CN1[C@@H]2CC[C@H]1C[C@@H](NC(=O)c1cccc3c1OC(C)(C)CC3)C2` [Example 36, Endo-2,2-dimethyl-N-(8-methyl-8-azabicyclo[3.2.1]oct-3-yl)-8-chromancarboxamide (Z)-2-butenedioate], the inhibition at 0.001 mg/kg is 4%. Also, the inhibition at 0.01 mg/kg (0.01 mg/kg I.V.) was found to be 76%.

Turning to `CN1[C@@H]2CCC[C@H]1C[C@@H](NC(=O)c1cccc3c1OC(C)(C)C3)C2` [Example 55, Endo-2,3-dihydro-2,2-dimethyl-N-(9-methyl-9-azabicyclo[3.3.1]non-3-yl)-7-benzofurancarboxamide (Z)-2-butenedioate], the inhibition at 0.003 mg/kg (0.003 mg/kg I.V.) was 88%.

In the case of `CN1[C@@H]2CC[C@H]1C[C@@H](NC(=O)c1cc(O)cc3c1OC(C)(C)C3)C2` [Example 62, Endo-2,3-dihydro-5-hydroxy-2,2-dimethyl-N-(8-methyl-8-azabicyclo[3.2.1]oct-3-yl)-7-benzofurancarboxamide (Z)-2-butenedioate], for the setting “0.01 mg/kg I.V.”, the inhibition at 0.01 mg/kg came out at 54%.

With `CC1Cc2cccc(C(=O)O[C@H]3C[C@H]4CC[C@@H](C3)N4C)c2O1` (mixture of isomers) [Example 35, dl-endo-2,3-dihydro-2-methyl-7-benzofurancarboxylic acid, 8-methyl-8-azabicyclo[3.2.1]oct-3-yl ester (Z)-2-butenedioate], for the setting “0.01 mg/kg I.V.”, the inhibition at 0.01 mg/kg was 31%.

As for `CC1Cc2cccc(C(=O)N[C@@H]3C[C@H]4CC[C@@H](C3)N4C)c2O1` (mixture of isomers) [Example 38, dl-exo-2,3-dihydro-2-methyl-N-(8-methyl-8-azabicyclo[3.2.1]oct-3-yl)-7-benzofurancarboxamide (Z)-2-butenedioate], the inhibition at 0.03 mg/kg is 51%. The inhibition at 0.01 mg/kg (0.01 mg/kg I.V.) amounted to 26%.

`CC1(C)CCc2cccc(C(=O)NC3CN4CCC3CC4)c2O1` (centres unmarked) [Example 53, N-(1-azabicyclo[2.2.2]oct-3-yl)-3,4-dihydro-2,2-dimethyl-2H-1-benzopyran-8-carboxamide (Z)-2-butenedioate]: the inhibition at 0.001 mg/kg was determined as 50%. Besides, the inhibition at 0.003 mg/kg (0.003 mg/kg I.V.) was 93%.

As to `CN1[C@@H]2CC[C@H]1C[C@@H](NC(=O)c1ccc3c(c1)OC(C)(C)C3)C2` [Example 23, Endo-2,3-dihydro-2,2-dimethyl-N-(8-methyl-8-azabicyclo[3.2.1]oct-3-yl)-6-benzofurancarboxamide (Z)-2-butenedioate], the inhibition at 0.01 mg/kg (0.01 mg/kg I.V.) is -8%.

Regarding `CN1[C@@H]2CC[C@H]1C[C@@H](NC(=O)c1cc(Cl)c(N)c3c1OC(C)(C)C3)C2` [Example 56, Endo-2,3-dihydro-4-amino-5-chloro-2,2-dimethyl-N-(8-methyl-8-azabicyclo[3.2.1]oct-3-yl)-7-benzofurancarboxamide (Z)-2-butenedioate], for the setting “0.003 mg/kg I.V.”, the inhibition at 0.003 mg/kg turned out to be 25%. For the same compound, the inhibition at 0.01 mg/kg (0.01 mg/kg I.V.) was 89%.

As to `CC1(C)Cc2cc(Cl)cc(C(=O)NC3CN4CCC3CC4)c2O1` (centres unmarked) [Example 49, 2,3-Dihydro-5-chloro-2,2-dimethyl-N-(1-azabicyclo[2.2.2]oct-3-yl)-7-benzofurancarboxamide (Z)-2-butenedioate], for the setting “0.003 mg/kg I.V.”, the inhibition at 0.003 mg/kg is 40%. In addition, the inhibition at 0.01 mg/kg (0.01 mg/kg I.V.) was 89%.

On to `CC1(C)Cc2cccc(C(=O)NC3CN4CCC3CC4)c2O1` (centres unmarked) [Example 60, 2,3-Dihydro-2,2-dimethyl-N-(1-azabicyclo[2.2.2]oct-3-yl)-7-benzofurancarboxamide (Z)-2-butenedioate], for which the inhibition at 0.001 mg/kg was 25%. In addition, the inhibition at 0.003 mg/kg (0.003 mg/kg I.V.) is 87%.

For the compound `CC1Cc2cc(F)cc(C(=O)O[C@H]3C[C@H]4CC[C@@H](C3)N4C)c2O1` (mixture of isomers) [Example 31, dl-endo-5-fluoro-2,3-dihydro-2-methyl-7-benzofurancarboxylic acid, 8-methyl-8-azabicyclo[3.2.1]oct-3-yl ester (Z)-2-butenedioate], under “0.01 mg/kg I.V.”, the inhibition at 0.01 mg/kg is 32%.

Take `Cc1cc2c(c(C(=O)O[C@H]3C[C@H]4CC[C@@H](C3)N4C)c1)OC(C)(C)C2` [Example 37, Endo-2,3-dihydro-2,2,5-trimethyl-7-benzofurancarboxylic acid, 8-methyl-8-azabicyclo[3.2.1]oct-3-yl ester (Z)-2-butenedioate]: the inhibition at 0.01 mg/kg (0.01 mg/kg I.V.) was determined as 4%.

In the case of `CC1Cc2cc(Cl)cc(C(=O)N[C@H]3C[C@H]4CC[C@@H](C3)N4C)c2O1` (mixture of isomers) [Example 32, dl-endo-5-chloro-2,3-dihydro-2-methyl-N-(8-methyl-8-azabicyclo[3.2.1]oct-3-yl)-7-benzofurancarboxamide (Z)-2-butenedioate], the inhibition at 0.001 mg/kg worked out at 58%. Also, the inhibition at 0.003 mg/kg (0.003 mg/kg I.V.) was found to be 80%. Besides, under “0.01 mg/kg I.V.”, the inhibition at 0.01 mg/kg was 80%.

Turning to `CN1[C@@H]2CC[C@H]1C[C@@H](OC(=O)c1cc(Cl)c3c(c1)CC(C)(C)O3)C2` [Example 29, Endo-2,2-dimethyl-7-chloro-2,3-dihydro-5-benzofurancarboxylic acid, 8-methyl-8-azabicyclo[3.2.1]oct-3-yl ester (Z)-2-butenedioate], for the setting “0.01 mg/kg I.V.”, the inhibition at 0.01 mg/kg was -4%.

For the compound `CN1[C@@H]2CC[C@H]1C[C@@H](NC(=O)c1cccc3c1SC(C)(C)C3)C2` [Example 16, Endo-2,3-dihydro-2,2-dimethyl-N-(8-methyl-8-azabicyclo[3.2.1]oct-3-yl)benzo[b]thiophene-7-carboxamide (Z)-2-butenedioate], for the setting “0.01 mg/kg I.V.”, the inhibition at 0.01 mg/kg is 0.1%.

`CN1[C@@H]2CCC[C@H]1C[C@@H](NC(=O)c1cc(Cl)cc3c1OC(C)(C)C3)C2` [Example 54]: the inhibition at 0.003 mg/kg (0.003 mg/kg I.V.) came out at 84%. Also, under “0.01 mg/kg I.V.”, the inhibition at 0.01 mg/kg was found to be 94%.

For the compound `CN1C2CCC1CC(NC(=O)c1cc(Cl)cc3c1OC(C)(C)C3)C2.O=C(O)/C=C\C(=O)O` (stereo not drawn) [Example 30, Exo-2,2-dimethyl-5-chloro-2,3-dihydro-N-(8-methyl-8-azabicyclo[3.2.1]oct-3-yl)-7-benzofurancarboxamide (Z)-2-butenedioate], the “Percent Inhibition of Reflex in Rats” value reads like this: (0.003 mg/kg I.V.) 26%; (0.01 mg/kg I.V.) 67%.

Regarding `Cc1cc2c(c(C(=O)N[C@H]3C[C@H]4CC[C@@H](C3)N4C)c1)OC(C)(C)C2` [Example 21, Endo-2,3-dihydro-2,2,5-trimethyl-N-(8-methyl-8-azabicyclo[3.2.1]oct-3-yl)-7-benzofurancarboxamide (Z)-2-butenedioate], the inhibition at 0.001 mg/kg was 0.3%. Also, the inhibition at 0.003 mg/kg (0.003 mg/kg I.V.) was 11%. Besides, the inhibition at 0.01 mg/kg (0.01 mg/kg I.V.) worked out at 87%.

Turning to `COc1ccc(C(=O)N[C@H]2C[C@H]3CC[C@@H](C2)N3C)c2c1CC(C)(C)O2` [Example 52, Endo-2,3-dihydro-4-methoxy-2,2-dimethyl-N-(8-methyl-8-azabicyclo[3.2.1]oct-3-yl)-7-benzofurancarboxamide (Z)-2-butenedioate], the inhibition at 0.003 mg/kg (0.003 mg/kg I.V.) was -7%.

For the compound `CN1[C@@H]2CC[C@H]1C[C@H](NC(=O)c1cccc3c1OC(C)(C)C3)C2` [Example 39, Exo-2,3-dihydro-2,2-dimethyl-N-(8-methyl-8-azabicyclo[3.2.1]oct-3-yl)-7-benzofurancarboxamide (Z)-2-butenedioate], the inhibition at 0.03 mg/kg stood at 82%. The inhibition at 0.003 mg/kg (0.003 mg/kg I.V.) is -2%. Where the note is “0.01 mg/kg I.V.”, the inhibition at 0.01 mg/kg was determined as 53%.

As to `CN1[C@@H]2CC[C@H]1C[C@@H](NC(=O)c1ccc3c(c1)CC(C)(C)O3)C2` [Example 20, Endo-2,3-dihydro-2,2-dimethyl-N-(8-methyl-8-azabicyclo[3.2.1]oct-3-yl)-5-benzofurancarboxamide (Z)-2-butenedioate], under “0.01 mg/kg I.V.”, the inhibition at 0.01 mg/kg was 16%.

`CN1[C@@H]2CC[C@H]1C[C@@H](OC(=O)c1cc(Cl)cc3c1OC(C)(C)C3)C2` [Example 25, Endo-5-chloro-2,3-dihydro-2,2-dimethyl-7-benzofurancarboxylic acid, 8-methyl-8-azabicyclo[3.2.1]oct-3-yl ester (Z)-2-butenedioate]: the inhibition at 0.001 mg/kg is 10%. Further, the inhibition at 0.003 mg/kg (0.003 mg/kg I.V.) is 19%. Moreover, the inhibition at 0.01 mg/kg (0.01 mg/kg I.V.) came to 83%.
